Source: patent publication US20230000876A1, “TREATING CANCERS WITH A CYCLIN-DEPENDENT KINASE INHIBITOR” (Nuvation Bio Inc., priority 2021, published 2023)

How the values were obtained:
A375 = assay: Cell viability assay, melanoma cell line A375; assay type: cell-based
Description: (§1) 4.4.4 Compound Plate (10×) Preparation and Compound Treatment • 10× concentrate compound plate preparation: Add 198 μL of assay medium into each well of the V-bottom plate; then transfer 2 μL of the stock compound solution of each concentration from the stock plate. Add 2 μL of DMSO into the Blank and Control wells. Pipette up and down to mix well. This V-plate is designated as the 10× concentrate compound plate. • For day 0 plate, add 15 μL of the DMSO-medium into the Control wells. The final DMSO concentration was 0.1%. Then directly proceed to cell viability assay. • For assay plate, add 15 μL of the compound-medium of each well from the 10× concentrate compound plate into the cells in 96-well assay plate according to the plate map. Add 15 μL of the DMSO-medium into the Blank and Control wells. The final DMSO concentration was 0.1%. • Return the assay plate into incubator and incubate for 6 days.
(§2) The procedures were performed according to the Promega CellTiter-Glo Luminescent Cell Viability Assay Kit manual (Promega-G7573). • The CellTiter-Glo buffer was thawed and equilibrated to room temperature prior to use. • CellTiter-Glo Substrate was equilibrated to room temperature prior to use. • The entire liquid volume of CellTiter-Glo Buffer was transferred into the amber bottle containing CellTiter-Glo Substrate to reconstitute the lyophilized enzyme/substrate mixture. […] Plates were covered with aluminum foil to protect from light. • The contents were mixed for 2 minutes on an orbital shaker to induce cell lysis. • The plate was incubated at room temperature for 20 minutes to stabilize luminescent signal. • Record luminescence on the 2104 EnVision plate reader.
(§3) Inhibition rate (IR) of the tested compounds was determined by the following formula: IR (%)=(1−(RLU compound−RLU day0)/(RLU control−RLU day0))*100%. The inhibitions of different dose of compound were calculated in Excel file, and then were used to plot inhibition curves and evaluate related parameters, such as Min (%), Max (%) and GI50. […]

[1] = tested on: tumor fragments from a mCRPC patient; assay: Enzalutamide-resistant patient-derived xenograft prostate model (ST2347 PDX); assay type: in vivo, male Balb/c nude mice
SK-MEL-3 = assay: Cell viability assay, melanoma cell line SK-MEL-3; assay type: cell-based
Description: as §1, §2, §3

xMDA-MB-361 breast tumor = xMDA-MB-361 breast tumor model (ER-positive/HER2-positive); assay type: in vivo, female BALB/c nude mice; conditions: Group 5: Compound (I) 30 mg/kg PO QD*42 days
Description: Trastuzumab, tucatinib, Compound (I), and fulvestrant were tested in a xMDA-MB-361 breast tumor model (ER-positive/HER2-positive) on female BALB/c nude mice.

Nalm-6-luc = assay: CellTiter-Glo anti-proliferation assay, Nalm-6-luc; assay type: cell-based
Description: (§4) The anti-proliferation effect of 2 compounds (the compound of formula (I) and temozolomide) in 7 CNS metastasis cell lines (MOLT-4-luc, Nalm-6-luc, NCI-H460-luc, ACHN-luc2, PC-9-luc, H1975-luc, and KM12-luc) was evaluated.
(§5) The plating of cells and compound treatments are shown below in the plate map (Table 12). One plate was needed for the test of 2 compounds (the compound of formula (I) and temozolomide) in one cell line. The compound of formula (I) was tested from 10 μM, 3-fold serial dilution. Temozolomide was tested from 100 μM, 3-fold serial dilution.
(§6) All the cell lines were maintained in culture conditions at 37° C. in an atmosphere with 5% CO2 in air. The tumor cells were routinely subcultured. The cells growing in an exponential growth phase were harvested and counted for plating.
(§7) Cells were counted by haemocytometer with Trypan blue staining. Next, 135 μL of cell suspension were plated into the assay plates according to the plate map and 135 μL of assay medium into the blank wells. The plates were incubated at 37° C., 5% CO2, 95% air and 100% relative humidity overnight.
as §1
(§8) The procedures were performed according to the Promega CellTiter-Glo Luminescent Cell Viability Assay Kit manual (Promega-G7573). • The CellTiter-Glo buffer was thawed and equilibrated to room temperature prior to use. • CellTiter-Glo Substrate was equilibrated to room temperature prior to use. • The entire liquid volume of CellTiter-Glo Buffer was transferred into the amber bottle containing CellTiter-Glo Substrate to reconstitute the lyophilized enzyme/substrate mixture. This forms the CellTiter-Glo Reagent. • The contents were mixed by gently vortexing to obtain a homogeneous solution. • The plate was equilibrated and its contents to room temperature for approximately 30 minutes. 75 μL (equal to the half volume of culture medium present in each well) CellTiter-Glo • Reagent was added in each well. Plates were covered with aluminum foil to protect from light. • The contents were mixed for 2 minutes on an orbital shaker to induce cell lysis. • The plate was incubated at room temperature for 20 minutes to stabilize luminescent signal. • Record luminescence on the 2104 EnVision plate reader.
(§9) Inhibition rate (IR) of the tested compounds was determined by the following formula: IR (%)=(1−(RLU compound−RLU day0)/(RLU control−RLU day0))*100%. The inhibitions of different dose of compound were calculated in Excel file, and then were used to plot inhibition curves and evaluate related parameters, such as Min (%), Max (%) and GI50. The data were interpreted by GraphPad Prism.

H1975-luc = assay: CellTiter-Glo anti-proliferation assay, H1975-luc; assay type: cell-based
Description: as §4, §5, §6, §7, §1, §8, §9

[2] = 144 h, 6 days incubation, read-out: Absolute GI50
[3] = inhibition rate, 6 days, Compound (I) from 10 μM, temozolomide from 100 μM, 3-fold, 9 points

CC(C)N1CCOc2c(F)cc(-c3nc(Nc4ccc(C5CCN(C)CC5)cn4)ncc3F)cc21 [Compound (I), 5-fluoro-4-(8-fluoro-4-isopropyl-3,4-dihydro-2H-benzo[b][1,4]oxazin-6-yl)-N-(5-(1-methylpiperidin-4-yl)pyridin-2-yl)pyrimidin-2-amine]
GI50 (A375; Homo sapiens, A-375, read-out: Absolute GI50): 156 nM | Max (%) (A375; inhibition rate): 101.21% | Min (%) (A375; inhibition rate): −0.12% | Antitumor activity over the course of the treatment ([1]; 30 mg/kg oral QD): statistically significant antitumor activity | Tumor regression ([1]; 30 mg/kg oral QD): tumor regression in all cases | Mice with 100% reduction in tumor volume ([1]; day 39 of treatment): one | Mice with >50% reduction in tumor volume ([1]; day 39 of treatment): 3 of 10 | GI50 (SK-MEL-3; Homo sapiens, SK-MEL3, read-out: Absolute GI50): 174 nM | Max (%) (SK-MEL-3; inhibition rate): 111.93% | Min (%) (SK-MEL-3; inhibition rate): −1.51% | Tumor volume (mean ± SEM) (xMDA-MB-361 breast tumor; Day 0): 157 ± 11 mm^3 | Tumor volume (mean ± SEM) (xMDA-MB-361 breast tumor; Day 3): 202 ± 10 mm^3 | Tumor volume (mean ± SEM) (xMDA-MB-361 breast tumor; Day 7): 271 ± 34 mm^3 | Tumor volume (mean ± SEM) (xMDA-MB-361 breast tumor; Day 10): 316 ± 43 mm^3 | Tumor volume (mean ± SEM) (xMDA-MB-361 breast tumor; Day 14): 342 ± 49 mm^3 | Tumor volume (mean ± SEM) (xMDA-MB-361 breast tumor; Day 17): 326 ± 70 mm^3 | Tumor volume (mean ± SEM) (xMDA-MB-361 breast tumor; Day 21): 360 ± 84 mm^3 | Tumor volume (mean ± SEM) (xMDA-MB-361 breast tumor; Day 24): 429 ± 119 mm^3 | Tumor volume (mean ± SEM) (xMDA-MB-361 breast tumor; Day 28): 542 ± 146 mm^3 | Tumor volume (mean ± SEM) (xMDA-MB-361 breast tumor; Day 31): 571 ± 150 mm^3 | Tumor volume (mean ± SEM) (xMDA-MB-361 breast tumor; Day 35): 587 ± 148 mm^3 | Tumor volume (mean ± SEM) (xMDA-MB-361 breast tumor; Day 38): 629 ± 164 mm^3 | Tumor volume (mean ± SEM) (xMDA-MB-361 breast tumor; Day 42): 608 ± 145 mm^3 | GI50 (Nalm-6-luc; [2]): 154 nM | Max (%) (Nalm-6-luc; [3]): 105.6% | Min (%) (Nalm-6-luc; [3]): −20.8% | GI50 (H1975-luc; [2]): 226 nM | Max (%) (H1975-luc; [3]): 105.8% | Min (%) (H1975-luc; [3]): −2.3%
